System: DU-145 cells
Type: cell-based, Human

Compound: C=C1[C@@H](C)[C@H]2[C@H](Cc3ccccc3)NC(=O)[C@]23[C@H](OC(C)=O)/C=C/[C@@](C)(O)C(=O)[C@@H](C)C/C=C/[C@H]3[C@@H]1O [Cytochalasin-D]
- Reduction in cell migration compared to cells treated with media alone: did not migrate
- Relative Wound Density at 24 Hours, Mean: 3.3 ± 0.2
- Relative Wound Density at 24 Hours, Percent Relative to Media: 4%

From patent US20120207743A1 (priority 2011, published 2012)
